Laboratory results published in US9615572B1, “Disinfectant spray comprising copper iodide” (PEN Inc., priority 2014, dated 2017).

System: feline calcivirus ATCC VR-782
Settings: 20 mg/L in a water based solution applied to a surface; 10 minutes exposure; non-enveloped virus
Procedure: Copper ions (20 mg/L) in a water based solution were applied to a surface with the non-enveloped feline calcivirus ATCC VR-782. […] In our case we wanted to have an idea about the rate of killing and this is why we limited the test to 10 minutes.

copper iodide
reduction relative to the control: 82.22%
